Biological target: human HPK1 (MAP4K1) (Homo sapiens (Human), UniProt Q92918)
Test: HPK1 IC50 Assay
Assay type: biochemical
Conditions: recombinant HPK1 kinase domain 0.15 nM, synthetic peptide substrate STK S1, 3 hours at 25° C., time-resolved fluorescence energy transfer; geometric mean of multiple experiments
Procedure: The enzymatic activity of human HPK1 (MAP4K1) was monitored in a biochemical assay in the presence or absence of compounds and using a synthetic peptide substrate. An increase in phosphorylation of the peptide by HPK1 was indicative of its kinase activity.
Recombinant HPK1 kinase domain produced via baculovirus infection of insect cells was obtained from Proteros (Proteros Biostructures #PR-0322) and was pre-activated in the presence of 2 mM ATP (Sigma-Aldrich, cat #GE27-2056-01) and 2 mM magnesium chloride for 16 hours at 4° C. The protein reaction mixture was then loaded to a desalting column (Thermo Fisher Scientific, Cat #89889) to remove excess ATP. HPK1 was eluted with buffer containing 20 mM Tris (2-Amino-2-(hydroxymethyl)propane-1,3-diol) pH 8.0, 150 mM NaCl, 2 mM dithiothreitol and 5% glycerol, and was frozen at −80° C. for later use. HPK1 dual phosphorylation was confirmed by mass spectrometry.
Ten nanoliters of test compounds dissolved in DMSO at various concentrations were dispensed into a 384-well ProxiPlate (PerkinElmer #6008289). Five microliters of a solution of recombinant HPK1 diluted in HPK1 kinase assay buffer (50 mM BES [N,N-Bis(2-hydroxyethyl)-2-aminoethanesulfonic acid], pH 7.0; 10 mM magnesium chloride; 0.01% Triton X-100; 1 mM dithiothreitol; 0.01% bovine serum albumin; 0.1 mM sodium orthovanadate) was added to the compound-containing plate and was incubated for 15 minutes at 25° C. Five microliters of a mixture of ATP (Sigma-Aldrich #A6559) and peptide substrate STK Si (Cisbio #61ST1BLC) diluted in HPK1 kinase assay buffer was then added to start the reaction. Final concentrations were 0.15 nM for HPK1, […], and 1 […]. The reaction mixture was incubated at 25° C. for 3 hours and was stopped with the addition of 10 μl of an EDTA (Ethylenediaminetetraacetic acid)-containing detection buffer (Cisbio #62SDBRDF) supplemented with Europium cryptate-labeled anti-phospho-serine/threonine antibodies (Cisbio #62ST1PEJ) and XL665-labeled streptavidin (Cisbio #610SAXLG). The mixture was incubated for 16 hours at room temperature and peptide phosphorylation was measured by time-resolved fluorescence energy transfer (665 nm/620 nm) on an Envision plate reader (PerkinElmer).
Data in Table 1 were normalized based on positive (staurosporine) and negative (DMSO) controls. Least squares curve fittings were performed using a four-parameter variable slope nonlinear regression model. IC50 is defined as the concentration of compound required to inhibit 50% of maximum phosphorylation. IC50 values from multiple experiments were averaged by geometric mean and the standard deviation was calculated.

human HPK1 (MAP4K1), sequence (Q92918 17-274): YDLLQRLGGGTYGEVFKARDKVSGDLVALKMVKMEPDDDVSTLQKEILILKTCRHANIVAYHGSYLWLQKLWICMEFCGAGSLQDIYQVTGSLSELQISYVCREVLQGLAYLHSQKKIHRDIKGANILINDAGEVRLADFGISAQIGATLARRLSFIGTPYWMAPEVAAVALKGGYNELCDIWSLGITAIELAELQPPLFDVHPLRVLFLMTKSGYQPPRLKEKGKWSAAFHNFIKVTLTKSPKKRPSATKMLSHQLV

IC50 [pM]	SMILES
66700	O=C1Nc2ccc(-c3cnc4c(c3)NCCO4)cc2/C1=C/c1ncc[nH]1 [Compound C71, (Z)-3-((1H-imidazol-2-yl)methylene)-5-(2,3-dihydro-1H-pyrido[2,3-b][1,4]oxazin-7-yl)indolin-2-one]
2610	Cc1c[nH]c(/C=C2\C(=O)Nc3c(Cl)cc(-c4cnc5c(c4C)NCCO5)cc32)c1 [Compound C22, (Z)-7-chloro-3-((4-methyl-1H-pyrrol-2-yl)methylene)-5-(8-methyl-2,3-dihydro-1H-pyrido[2,3-b][1,4]oxazin-7-yl)indolin-2-one]
260	Cc1c(-c2ccc3c(c2)/C(=C/c2cnc[nH]2)C(=O)N3)cnc2c1NCCO2 [Compound C32, (Z)-3-((1H-imidazol-5-yl)methylene)-5-(8-methyl-2,3-dihydro-1H-pyrido[2,3-b][1,4]oxazin-7-yl)indolin-2-one]
270	Cc1c(-c2cc(F)c3c(c2C)/C(=C/c2cc4cnccc4[nH]2)C(=O)N3)cnc2c1NCCO2 [Compound C54, (Z)-3-((1H-pyrrolo[3,2-c]pyridin-2-yl)methylene)-7-fluoro-4-methyl-5-(8-methyl-2,3-dihydro-1H-pyrido[2,3-b][1,4]oxazin-7-yl)indolin-2-one]
310	Cc1c(-c2cc(F)c3c(c2C)/C(=C/c2cc4ncccc4[nH]2)C(=O)N3)cnc2c1NCCO2 [Compound C64, (Z)-3-((1H-pyrrolo[3,2-b]pyridin-2-yl)methylene)-7-fluoro-4-methyl-5-(8-methyl-2,3-dihydro-1H-pyrido[2,3-b][1,4]oxazin-7-yl)indolin-2-one]
1640	Cc1c(-c2ccc3c(c2)/C(=C/c2cnn[nH]2)C(=O)N3)cnc2c1NCCO2 [Compound C27, (Z)-3-((1H-1,2,3-triazol-5-yl)methylene)-5-(8-methyl-2,3-dihydro-1H-pyrido[2,3-b][1,4]oxazin-7-yl)indolin-2-one]
4330	Cc1cc(-c2cnc3c(c2C)NCCO3)cc2c1NC(=O)/C2=C\c1cn[nH]c1 [Compound C67, (Z)-3-((1H-pyrazol-4-yl)methylene)-7-methyl-5-(8-methyl-2,3-dihydro-1H-pyrido[2,3-b][1,4]oxazin-7-yl)indolin-2-one]
70	Cc1c(-c2ccc3c(c2)/C(=C/c2cc(C#N)c[nH]2)C(=O)N3)cnc2c1NCCO2 [Compound C21, (Z)-5-((5-(8-methyl-2,3-dihydro-1H-pyrido[2,3-b][1,4]oxazin-7-yl)-2-oxoindolin-3-ylidene)methyl)-1H-pyrrole-3-carbonitrile]
160	Cc1c(-c2ccc3c(c2)/C(=C/c2cc(Br)c[nH]2)C(=O)N3)cnc2c1NCCO2 [Compound C20, (Z)-3-((4-bromo-1H-pyrrol-2-yl)methylene)-5-(8-methyl-2,3-dihydro-1H-pyrido[2,3-b][1,4]oxazin-7-yl)indolin-2-one]
50	Cc1c(-c2cc3c(cc2F)NC(=O)/C3=C\c2cc3ncccc3[nH]2)cnc2c1NCCO2 [Compound C44, (Z)-3-((1H-pyrrolo[3,2-b]pyridin-2-yl)methylene)-6-fluoro-5-(8-methyl-2,3-dihydro-1H-pyrido[2,3-b][1,4]oxazin-7-yl)indolin-2-one]
190	Cc1ncc(/C=C2\C(=O)Nc3cc(C)c(-c4cnc5c(c4C)NCCO5)cc32)[nH]1 [Compound C3, (Z)-6-methyl-3-((2-methyl-1H-imidazol-5-yl)methylene)-5-(8-methyl-2,3-dihydro-1H-pyrido[2,3-b][1,4]oxazin-7-yl)indolin-2-one]
150	Cc1ncc(/C=C2\C(=O)Nc3c(F)cc(-c4cnc5c(c4C)NCCO5)c(C)c32)[nH]1 [Compound C4, (Z)-7-fluoro-4-methyl-3-((2-methyl-1H-imidazol-5-yl)methylene)-5-(8-methyl-2,3-dihydro-1H-pyrido[2,3-b][1,4]oxazin-7-yl)indolin-2-one]
50	Cc1c(-c2cc(F)c3c(c2)/C(=C/c2ccc[nH]2)C(=O)N3)cnc2c1NCCO2 [Compound C26, (Z)-3-((1H-pyrrol-2-yl)methylene)-7-fluoro-5-(8-methyl-2,3-dihydro-1H-pyrido[2,3-b][1,4]oxazin-7-yl)indolin-2-one]
160	Cc1c(-c2cc(F)c3c(c2)/C(=C/c2cc4ccccc4[nH]2)C(=O)N3)cnc2c1NCCO2 [Compound C53, (Z)-3-((1H-indol-2-yl)methylene)-7-fluoro-5-(8-methyl-2,3-dihydro-1H-pyrido[2,3-b][1,4]oxazin-7-yl)indolin-2-one]
180	Cc1ncc(/C=C2\C(=O)Nc3cc(F)c(-c4cnc5c(c4C)NCCO5)cc32)[nH]1 [Compound C8, (Z)-6-fluoro-3-((2-methyl-H-imidazol-5-yl)methylene)-5-(8-methyl-2,3-dihydro-1H-pyrido[2,3-b][1,4]oxazin-7-yl)indolin-2-one]
1000	CC/C(=C1/C(=O)Nc2ccc(-c3cnc4c(c3C)NCCO4)cc21)c1cnc[nH]1 [Compound C36, (Z)-3-(1-(1H-imidazol-5-yl)propylidene)-5-(8-methyl-2,3-dihydro-H-pyrido[2,3-b][1,4]oxazin-7-yl)indolin-2-one]
220	Cc1ncc(/C=C2\C(=O)Nc3c(F)cc(-c4cnc5c(c4C)NCCO5)cc32)[nH]1 [Compound C10, (Z)-7-fluoro-3-((2-methyl-1H-imidazol-5-yl)methylene)-5-(8-methyl-2,3-dihydro-1H-pyrido[2,3-b][1,4]oxazin-7-yl)indolin-2-one]
6900	Cc1c(-c2cc(Cl)c3c(c2)/C(=C/c2cn[nH]c2)C(=O)N3)cnc2c1NCCO2 [Compound C66, (Z)-3-((1H-pyrazol-4-yl)methylene)-7-chloro-5-(8-methyl-2,3-dihydro-1H-pyrido[2,3-b][1,4]oxazin-7-yl)indolin-2-one]
410	Cc1c(-c2cc(F)c3c(c2C)/C(=C/c2cc4ccncc4[nH]2)C(=O)N3)cnc2c1NCCO2 [Compound C63, (Z)-3-((1H-pyrrolo[2,3-c]pyridin-2-yl)methylene)-7-fluoro-4-methyl-5-(8-methyl-2,3-dihydro-1H-pyrido[2,3-b][1,4]oxazin-7-yl)indolin-2-one]
50	CCN(CC)CCNC(=O)c1c(C)[nH]c(/C=C2\C(=O)Nc3cc(F)c(-c4cnc5c(c4C)NCCO5)cc32)c1C [Compound C1, (Z)—N-(2-(diethylamino)ethyl)-5-((6-fluoro-5-(8-methyl-2,3-dihydro-1H-pyrido[2,3-b][1,4]oxazin-7-yl)-2-oxoindolin-3-ylidene)methyl)-2,4-dimethyl-1H-pyrrole-3-carboxamide]
5660	Cc1c(-c2ccc3c(c2)/C(=C/c2ncc[nH]2)C(=O)N3)cnc2c1NC(=O)C1(CC1)O2 [Compound C33, (Z)-7′-(3-((1H-imidazol-2-yl)methylene)-2-oxoindolin-5-yl)-8′-methylspiro[cyclopropane-1,3′-pyrido[2,3-b][1,4]oxazin]-2′(1′H)-one]
50	Cc1ccc(/C=C2\C(=O)Nc3ccc(-c4cnc5c(c4C)NCCO5)cc32)[nH]1 [Compound C17, (Z)-3-((5-methyl-H-pyrrol-2-yl)methylene)-5-(8-methyl-2,3-dihydro-1H-pyrido[2,3-b][1,4]oxazin-7-yl)indolin-2-one]
1100	Cc1c(-c2ccc3c(c2)/C(=C/c2cc4cccnc4[nH]2)C(=O)N3)cnc2c1NCCO2 [Compound C61, (Z)-3-((1H-pyrrolo[2,3-b]pyridin-2-yl)methylene)-5-(8-methyl-2,3-dihydro-1H-pyrido[2,3-b][1,4]oxazin-7-yl)indolin-2-one]
130	Cc1c(-c2cc3c(cc2F)NC(=O)/C3=C\c2cc3ccncc3[nH]2)cnc2c1NCCO2 [Compound C43, (Z)-3-((1H-pyrrolo[2,3-c]pyridin-2-yl)methylene)-6-fluoro-5-(8-methyl-2,3-dihydro-1H-pyrido[2,3-b][1,4]oxazin-7-yl)indolin-2-one]
60	Cc1c(-c2ccc3c(c2)/C(=C/c2cc4cnccc4[nH]2)C(=O)N3)cnc2c1NCCO2 [Compound C60, (Z)-3-((1H-pyrrolo[3,2-c]pyridin-2-yl)methylene)-5-(8-methyl-2,3-dihydro-1H-pyrido[2,3-b][1,4]oxazin-7-yl)indolin-2-one]
160	Cc1c(-c2cc3c(cc2F)NC(=O)/C3=C\c2cc3ccccc3[nH]2)cnc2c1NCCO2 [Compound C51, (Z)-3-((1H-indol-2-yl)methylene)-6-fluoro-5-(8-methyl-2,3-dihydro-1H-pyrido[2,3-b][1,4]oxazin-7-yl)indolin-2-one]

Reference: patent US11453681B2, “Substituted eneoxindoles and uses thereof” (Gilead Sciences, Inc., priority 2019, dated 2022)
